How the values were obtained:
[1] = tested on: Hela cells; experiment: Identifying the nascent proteome in Hela cells using OP-puro (click chemistry with biotin azide, NeutrAvidin affinity purification, Western blot/silver stain, MS/MS); format: cell-based, human
Procedure: FIG. 3 is a set of two images of gels that show selective enrichment of newly synthesized proteins in Hela cells treated with OP-puro relative to those treated with puromycin. Hela cells were treated with either 50 μM OP-puro or puro (as indicated) for one hour. Cells were then harvested in PBS+1% SDS (sodium dodecyl sulfate) and lysed. Lysates were diluted in 0.1% SDS and incubated with biotin azide using a click reaction for one hour. Biotinylated proteins were affinity purified using NeutrAvidin agarose beads. Eluted proteins were resolved using a 4-12% gradient SDS-PAGE gel and detected by either Western blot with streptavidin-HRP (left gel) or by silver stain (right gel). The lanes reflect input (I), supernatant (S), or pull-down (P) as indicated.
OP-puro can identify newly synthesized proteins in a defined timeframe in mammalian cells grown in culture. Newly synthesized proteins were identified in Hela cells using OP-puro, followed by click chemistry, affinity purification, and MS/MS analysis. OP-puro was synthesized according to Liu et al, 2012 supra.
To prepare samples for MS/MS analysis, the captured biotinylated proteins from the OP-puro and puro (used as a background control) treated cells were alkylated and digested on the agarose beads using trypsin. The peptides were analyzed using a capillary HPLC system coupled online with an LTQ orbitrap mass spectrometer. […] These peptides identified 530 different human proteins, which represents ˜5% of the total Hela proteome (Nagaraj et al 2011 supra).

[2] = Stability of PhAc-OP-puro in mouse plasma by LCMS; format: in vitro ADME; conditions: in vitro, for up to 40 min
Procedure: FIG. 6 is a plot of the results of incubating PhAc-OP-puro in mouse plasma for the indicated period of time. Stability of PhAc-OP-puro was monitored by liquid chromatography mass spectrometry.
As shown above, PhAc-OP-puro is stable in cell culture and is not converted to OP-puro in wild type cells. To use PhAc-OP-puro in an animal system such as mice, the in vitro stability of PhAc-OP-puro in plasma should be determined. Plasma typically contains high esterase activity that could result in cleavage of the carbamate linkage in PhAc-OP-puro. Cleavage of PhAc-OP-puro at the carbamate linkage would generate OP-puro, and therefore would not allow use of the disclosed method in intact mice. While there are several examples of drugs containing carbamates (Chaturvedi D, Tetrahedron 68, 15 (2012); incorporated by reference herein), it is unpredictable whether or not a particular carbamate is resistant to esterases in plasma.
The potential esterase-dependent metabolism of PhAc-OP-puro in mouse plasma was assessed by liquid chromatography mass spectrometry (LCMS). PhAc-OP-puro was determined to be stable in mouse plasma for up to 40 min (FIG. 6).

[3] = tested on: HEK 293T cells transfected with PGA-IRES-GFP; experiment: Cell-specific labeling of newly synthesized proteins in single HEK 293T cells (click chemistry with Alexa Fluor-568 azide, fluorescence microscopy); format: cell-based, human; conditions: 5 μM, 30 min
Procedure: FIG. 5A is a set of 12 images of HEK 293T cells transfected with PGA-IRES-GFP or controls as indicated using calcium phosphate transfection. In two of the conditions, PGA-IRES-GFP transfected cells were mixed with nontransfected cells such that the total population of transfected cells was 5%. At a timepoint 24 hours post transfection, cells were treated with either a DMSO control or 5 μM PhAc-OP-puro for 30 minutes as indicated. Cells were then fixed with methanol and nascent protein synthesis detected by click chemistry with Alexa Fluor-568 azide. After click chemistry, cells were labeled with an antibody specific for GFP. Total cells were detected by DAPI.
In cells treated with PhAc-OP-puro (5 μM, 30 min), labeling of newly synthesized proteins (OP-puro-tagged peptides) is detected in PGA-expressing cells (identified by GFP) (FIG. 5A). The amount of labeling appeared to correlate with the expression levels of PGA as determined by comparing the fluorescence intensity of the OP-puro tagged peptides to the fluorescence intensity of GFP.

[4] = tested on: HEK293T cells transfected with PGA-IRES-GFP or control plasmid; experiment: Deblocking of PhAc-OP-puro by PGA in HEK 293T cells transfected with PGA-IRES-GFP or control plasmid (biotin azide click, Streptavidin-HRP dot blot/Western blot); format: cell-based, human
Procedure: FIG. 4A is a dot blot and a bar graph showing HEK293T cells transfected with either a PGA IRES GFP or a control plasmid (as indicated) using calcium phosphate transfection. Twenty-four hours after transfection, cells were treated with 5 or 50 μM of DMSO (negative control), OP-puro, or PhAc-OP-puro as indicated for 30 minutes. Cells were harvested in PBS+1% SDS. Lysates were diluted 10× and incubated with biotin azide under click reaction conditions for one hour. Lysates were spotted onto nitrocellulose and biotinylated proteins detected with Streptavidin-HRP (top panel). Dot intensity was quantified using Image) and graphed (bottom panel).
FIG. 4B is a set of two images of gels showing proteins from three of the samples described in FIG. 4A resolved by 4-12% gradient SDS-PAGE and detected by Western blot with Streptavidin-HRP (left panel) or Ponceau S staining (right panel) Bands marked with an asterisk are endogenous cellular biotinylated proteins.
In E. coli, PGA is expressed as a precursor protein containing a signal sequence that targets it to the bacterial periplasm, where it is processed and activated (Kasche et al, Biochem Biophys Acta 1433, 76 (1999); incorporated by reference herein). Previous studies, however, have shown that by removing the signal sequence, PGA can be expressed in the cytoplasm of the methylotrophic yeast, Pichia pastoris (Maresova H et al, BMC Biotechnol 10, 7 (2010); incorporated by reference herein). Importantly, this cytoplasmic variant of PGA was as active as wild type (WT) PGA expressed in bacteria (Maresova H et al, 2010 supra). However, to date, no one had shown whether or not PGA could be expressed in mammalian cells or any cells derived from a multicellular organism. A construct (PGA-IRES-GFP) was the designed, the construct comprising a variant of PGA lacking the signal sequence described above, and an IRES-GFP for co-cistronic expression of GFP to identify transfected cells.
The incorporation of OP-puro into newly synthesized proteins was detected using click chemistry with biotin azide. […] (FIG. 4A).

[5] = OP-puro treated Hela cells, puro as background control

C#CCOc1ccc(C[C@H](N)C(=O)N[C@H]2[C@@H](O)[C@H](n3cnc4c(N(C)C)ncnc43)O[C@@H]2CO)cc1 [OP-puro, O-propargyl puromycin]
biotinylated proteins in NeutrAvidin eluates (Western blot with streptavidin-HRP) ([1]; Hela cells, 50 μM, one hour): presence of biotinylated proteins
fraction of the total Hela proteome represented by identified proteins ([1]; OP-puro treated Hela cells): ~5%
different human proteins identified [1, 5]: 530
peptides with unique amino acid sequences identified by MS/MS [1, 5]: 1,600

C#CCOc1ccc(C[C@H](NC(=O)OCc2ccc(NC(=O)Cc3ccccc3)cc2)C(=O)NC2C(CO)OC(n3cnc4c(N(C)C)ncnc43)C2O)cc1 (stereo partly shown) [PhAc-OP-puro]
stability in mouse plasma [2]: stable
labeling of newly synthesized proteins (OP-puro-tagged peptides) in PGA-expressing cells ([3]; PGA-expressing cells identified by GFP): detected
labeling of newly synthesized proteins in cells not expressing PGA ([3]; cells not expressing PGA): No labeling was detected
incorporation into newly synthesized proteins (biotin signal) ([4]; HEK 293T cells transfected with PGA-IRES-GFP, 5 μM, 30 min): prominent biotin signal
time for complete conversion to OP-puro ([4]; PGA-IRES-GFP transfected HEK 293T cells, 5 μM): ≤ 30 min
induction of the unfolded protein response ([4]; PGA-IRES-GFP transfected HEK 293T cells, 5 μM, 30 min): no observed induction
signal intensity relative to OP-puro control ([4]; PGA-IRES-GFP transfected HEK 293T cells, 5 μM, 30 min, versus control transfected cells with OP-puro 5 μM): the same as that of control transfected cells treated with OP-puro
activity (labeling of proteins) in the absence of PGA ([4]; control transfected HEK 293T cells, up to 50 μM): completely inert

COc1ccc(C[C@H](N)C(=O)N[C@H]2[C@@H](O)[C@H](n3cnc4c(N(C)C)ncnc43)O[C@@H]2CO)cc1 [puro, puromycin]
silver stain of NeutrAvidin eluates ([1]; Hela cells, 50 μM, one hour): no detectable staining

From patent publication US20160176919A1, “CELL SPECIFIC LABELING OF NEWLY SYNTHESIZED PROTEINS” (OREGON HEALTH & SCIENCE UNIVERSITY, priority 2014, published 2016)
